The values that follow come from US12448375B2, “Kinase inhibitors for the treatment of neurodegenerative diseases” (Ohio State Innovation Foundation, priority 2019, dated 2025).

The target in one experiment is T1, JNK3 (Homo sapiens, UniProt P53779).
T1 construct: purchased Reaction Biology Corp
Kind of experiment: HotSpot Kinase Assay (Reaction Biology Corp.), anti-JNK3 activity. Particulars: HotSpot radiometric assay, 33P-ATP. Format: biochemical. As for the experimental part: (§1) The anti-JNK3 activity of compounds prepared as in the previous examples was evaluated using a Reaction Biology Corp. HotSpot Kinase Assay. Base reaction buffer was 20 mM HEPES (4-(2-hydroxyethyl)-1-piperazineethanesulfonic acid) at pH 7.5 with 10 mM MgCl2, 1 mM EGTA (ethylene glycol-bis(β-aminoethyl ether)-N,N,N′,N′-tetracetic acid), 0.02% Brij™ 35, 0.02 mg/mL BSA (bovine serum albumin), 0.1 mM Na3VO4, 2 mM DTT (dithiothreitol), and 1% DMSO. Required cofactors were added individually to each kinase reaction.
(§2) Activity against related enzymes JNK1 and P38a was further assessed using the same assay.

Another experiment addresses T2, JNK1 (Homo sapiens, UniProt P45983).
T2 construct: purchased Reaction Biology Corp
Kind of experiment: HotSpot Kinase Assay, JNK1. Format: biochemical. The following applies: HotSpot radiometric assay, 33P-ATP. How it is done:
as §1, §2

For a further experiment, the target named is T3, p38a (Homo sapiens, UniProt Q16539).
T3 construct: purchased Reaction Biology Corp
The experiment can be described thus: HotSpot Kinase Assay, P38a. It counts as biochemical. Particulars: HotSpot radiometric assay, 33P-ATP. How it is done:
as §1, §2

Experiment [1] has as its system c-jun phosphorylation in SH-SY5Y human neuroblastoma cell line. Kind of experiment: In Cell Western Assay, p-c-jun after TNFa. It counts as cell-based. Particulars: SH-SY5Y cells, 25 ng/ml TNFa 1 hour, read-out: Phosphoryl. in SH-SY5Y. How it is done: SH-SY5Y human neuroblastoma cell line was utilized for the assay. […] Next day, cells were starved of serum for 2 hours by media replacement with serum free DMEM:F12. Cells were then pretreated with inhibitors in DMEM:F12 for 30 min, which was followed by the addition of 25 ng/ml of TNFa for 1 hour. At the end of incubation, cells were fixed with 3% paraformaldehyde for 20 min at room temperature. Following three washes with 0.1 M phosphate buffer (pH 7.0) with shaking during washes, cells were treated with Licor blocking buffer (1:1 dilution in PBS with 0.3% Triton X-100) for 1 hour on a shaker. […] Next day, cells were washed with PBS containing 0.3% Triton X-100 for 5 min each three times with shaking. […] Following three 5 min washes, cells were incubated for nuclei staining with Alexa 680 succinidimyl ester (Thermofisher cat #, A20008) at 1/40,000 dilution for 15 min with shaking and subsequent three 5 min washes. P-c-jun and nuclei signals were detected using Odyssey LiCor Infrared scanner. The p-c-jun signal of each well was normalized to the cell number using nuclei signal.

pIC50: −log10 of the molar value. Read-outs that look alike come from different tables or passages of the source. Where only a bound is given, the exact number is not on record here.

T3 sequence (Q16539 whole entry): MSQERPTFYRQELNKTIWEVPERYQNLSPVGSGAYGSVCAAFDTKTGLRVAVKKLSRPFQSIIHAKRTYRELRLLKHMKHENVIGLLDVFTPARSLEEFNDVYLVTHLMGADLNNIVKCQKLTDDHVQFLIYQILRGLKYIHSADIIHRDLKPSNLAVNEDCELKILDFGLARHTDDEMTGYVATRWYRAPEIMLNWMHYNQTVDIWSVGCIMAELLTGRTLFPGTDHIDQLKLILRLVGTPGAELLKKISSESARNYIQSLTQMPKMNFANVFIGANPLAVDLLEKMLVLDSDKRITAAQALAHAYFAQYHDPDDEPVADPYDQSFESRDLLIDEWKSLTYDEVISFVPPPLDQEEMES
T2 sequence (P45983 whole entry): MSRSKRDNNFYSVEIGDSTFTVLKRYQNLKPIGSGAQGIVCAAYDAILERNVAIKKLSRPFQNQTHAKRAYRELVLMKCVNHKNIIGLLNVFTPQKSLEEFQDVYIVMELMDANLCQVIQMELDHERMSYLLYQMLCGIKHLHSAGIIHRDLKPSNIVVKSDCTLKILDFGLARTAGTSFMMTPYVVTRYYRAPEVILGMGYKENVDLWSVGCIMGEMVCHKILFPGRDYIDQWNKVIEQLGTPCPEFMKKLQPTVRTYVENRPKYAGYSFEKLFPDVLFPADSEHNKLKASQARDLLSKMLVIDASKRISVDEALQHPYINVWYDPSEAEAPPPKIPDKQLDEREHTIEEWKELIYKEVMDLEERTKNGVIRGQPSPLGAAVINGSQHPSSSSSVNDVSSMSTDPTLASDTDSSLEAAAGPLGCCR
T1 sequence (P53779 whole entry): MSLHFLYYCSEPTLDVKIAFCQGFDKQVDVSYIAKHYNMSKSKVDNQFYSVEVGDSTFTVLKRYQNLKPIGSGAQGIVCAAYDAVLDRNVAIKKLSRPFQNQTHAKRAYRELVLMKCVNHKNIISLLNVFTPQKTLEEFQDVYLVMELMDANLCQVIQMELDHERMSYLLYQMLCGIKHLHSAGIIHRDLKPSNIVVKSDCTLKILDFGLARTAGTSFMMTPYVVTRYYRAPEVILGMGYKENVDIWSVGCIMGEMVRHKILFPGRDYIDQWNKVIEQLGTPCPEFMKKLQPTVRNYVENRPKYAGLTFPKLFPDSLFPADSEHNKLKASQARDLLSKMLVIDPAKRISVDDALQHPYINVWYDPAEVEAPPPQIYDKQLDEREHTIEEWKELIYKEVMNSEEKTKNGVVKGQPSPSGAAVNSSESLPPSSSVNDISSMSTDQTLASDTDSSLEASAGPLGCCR

`CNC(=O)c1cc(-n2ncc3cc(Nc4ccccc4Cl)ncc32)cs1` [Compound 6, 4-(5-((2-chlorophenyl)amino)-1H-pyrazolo[3,4-c]pyridin-1-yl)-N-methylthiophene-2-carboxamide]: the pIC50 against JNK3 was more than 6.70; at JNK1, less than 6.00; at p38a it was 6.00 to 6.70; in experiment [1] (printed as a numeric range), 7.00 to 8.00.
Take `[2H]C([2H])([2H])N1CC[C@H](NC(=O)c2cc(-n3ncc4cc(Oc5ccccc5Cl)ccc43)cs2)C1` [Compound 9, (S)-4-(5-(2-chlorophenoxy)-1H-indazol-1-yl)-N-(1-(methyl-d3)pyrrolidin-3-yl)thiophene-2-carboxamide]: the pIC50 on JNK3 was more than 6.70; against JNK1 it was less than 6.00; on p38a, less than 6.00; in experiment [1], less than 6.00.
Take `CNC(=O)c1cc(-n2ncc3cc(Nc4ccccc4Cl)c(F)cc32)cs1` [Compound 28, 4-(5-((2-chlorophenyl)amino)-6-fluoro-1H-indazol-1-yl)-N-methylthiophene-2-carboxamide]: the pIC50 was more than 6.70 on JNK3, 6.00 to 6.70 against JNK1, more than 6.70 against p38a and more than 6.70 in experiment [1].
In the case of `[2H]C([2H])([2H])N1CC[C@H](NC(=O)c2cc(-n3ncc4cc(Nc5ccccc5Cl)ccc43)cs2)C1` [Compound 30, (S)-4-(5-((2-chlorophenyl)amino)-1H-indazol-1-yl)-N-(1-(methyl-d3)pyrrolidin-3-yl)thiophene-2-carboxamide], the pIC50 on JNK3 is more than 6.70; on JNK1, 6.00 to 6.70; at p38a it was 6.00 to 6.70; in experiment [1], more than 6.70.
Regarding `Cc1sc(C(=O)NC2COC2)cc1-n1ncc2cc(Nc3ccccc3Cl)cnc21` [Compound 68, 4-(5-((2-chlorophenyl)amino)-1H-pyrazolo[3,4-b]pyridin-1-yl)-5-methyl-N-(oxetan-3-yl)thiophene-2-carboxamide], the pIC50 against JNK3 was more than 6.70; on JNK1, 6.00 to 6.70; against p38a, less than 6.00.
Turning to `CC1COC(NC(=O)c2cc(-n3ncc4cc(Nc5ccccc5Cl)cnc43)cs2)=N1` (stereo not shown) [Compound 69, 4-(5-((2-chlorophenyl)amino)-1H-pyrazolo[3,4-b]pyridin-1-yl)-N-(4-methyl-4,5-dihydrooxazol-2-yl)thiophene-2-carboxamide], the pIC50 was more than 6.70 against JNK3, 6.00 to 6.70 against JNK1 and 6.00 to 6.70 against p38a.
In the case of `O=C(NC1COC1)c1cc(-n2ncc3cc(Oc4ccccc4Cl)cnc32)cs1` [Compound 70, 4-(5-(2-chlorophenoxy)-1H-pyrazolo[3,4-b]pyridin-1-yl)-N-(oxetan-3-yl)thiophene-2-carboxamide], the pIC50 at JNK3 is more than 6.70; against JNK1, less than 6.00; on p38a it was less than 6.00.
Turning to `CC(=O)N1CC(NC(=O)c2cc(-n3ncc4cc(Nc5ccccc5Cl)cnc43)cs2)C1` [Compound 71, N-(1-acetylazetidin-3-yl)-4-(5-((2-chlorophenyl)amino)-1H-pyrazolo[3,4-b]pyridin-1-yl)thiophene-2-carboxamide], the pIC50 on JNK3 is more than 6.70; on JNK1, 6.00 to 6.70; against p38a, more than 6.70.
`O=C(NCCCF)c1cc(-n2ncc3cc(Oc4ccccc4Cl)cnc32)cs1` [Compound 72, 4-(5-(2-chlorophenoxy)-1H-pyrazolo[3,4-b]pyridin-1-yl)-N-(3-fluoropropyl)thiophene-2-carboxamide]: the results for the pIC50 on JNK3, against JNK1 and at p38a were more than 6.70, 6.00 to 6.70 and 6.00 to 6.70, respectively.
On to `CNC(=O)c1cc(-n2ncc3cc(N(C)c4ccccc4OC)c(F)cc32)cs1` [Compound 75, 4-(6-fluoro-5-((2-methoxyphenyl)(methyl)amino)-1H-indazol-1-yl)-N-methylthiophene-2-carboxamide], for which the values for the pIC50 against JNK3, against JNK1 and against p38a were more than 6.70, 6.00 to 6.70 and 6.00 to 6.70, respectively.
As to `CNC(=O)c1cc(-n2ncc3cc(Nc4ccccc4Cl)c(C)nc32)cs1` [Compound 76, 4-(5-((2-chlorophenyl)amino)-6-methyl-1H-pyrazolo[3,4-b]pyridin-1-yl)-N-methylthiophene-2-carboxamide], the pIC50 against JNK3 is more than 6.70; against JNK1 it was 6.00 to 6.70; against p38a, 6.00 to 6.70.
As for `COc1ccccc1Nc1cc2cnn(-c3csc(C(=O)NC4COC4)c3)c2cc1F` [Compound 77, 4-(6-fluoro-5-((2-methoxyphenyl)amino)-1H-indazol-1-yl)-N-(oxetan-3-yl)thiophene-2-carboxamide], the pIC50 at JNK3 was more than 6.70; against JNK1, less than 6.00; against p38a it was more than 6.70.
On to `COc1cc2c(cnn2-c2csc(C(=O)NC3COC3)c2)cc1Nc1ccccc1Cl` [Compound 78, 4-(5-((2-chlorophenyl)amino)-6-methoxy-1H-indazol-1-yl)-N-(oxetan-3-yl)thiophene-2-carboxamide], for which the pIC50 was more than 6.70 against JNK3, less than 6.00 at JNK1 and less than 6.00 against p38a.
With `Cc1nc2c(cnn2-c2csc(C(=O)NC3(C)COC3)c2)cc1Nc1ccccc1Cl` [Compound 79, 4-(5-((2-chlorophenyl)amino)-6-methyl-1H-pyrazolo[3,4-b]pyridin-1-yl)-N-(3-methyloxetan-3-yl)thiophene-2-carboxamide], the pIC50 against JNK3 was 6.00 to 6.70; against JNK1, less than 6.00; at p38a, less than 6.00.
In the case of `CNC(=O)c1cc(-n2ncc3cc(Nc4ccccc4OC)c(F)cc32)cs1` [Compound 80, 4-(6-fluoro-5-((2-methoxyphenyl)amino)-1H-indazol-1-yl)-N-methylthiophene-2-carboxamide], the figures for the pIC50 at JNK3, against JNK1 and on p38a were more than 6.70, less than 6.00 and 6.00 to 6.70, respectively.
Consider `CNC(=O)c1cc(-n2ncc3cc(Nc4cccc(OC)c4Cl)c(C)nc32)cs1` [Compound 81, 4-(5-((2-chloro-3-methoxyphenyl)amino)-6-methyl-1H-pyrazolo[3,4-b]pyridin-1-yl)-N-methylthiophene-2-carboxamide], for which the results for the pIC50 against JNK3, against JNK1 and against p38a were more than 6.70, 6.00 to 6.70 and 6.00 to 6.70, respectively.
Turning to `Cc1nc2c(cnn2-c2csc(C(=O)NC3COC3)c2)cc1Nc1cccc(F)c1Cl` [Compound 100, 4-(5-((2-chloro-3-fluorophenyl)amino)-6-methyl-1H-pyrazolo[3,4-b]pyridin-1-yl)-N-(oxetan-3-yl)thiophene-2-carboxamide], the pIC50 against JNK3 was more than 6.70; on JNK1, 6.00 to 6.70; against p38a it was 6.00 to 6.70.
On to `CNC(=O)c1cc(-n2ncc3cc(Nc4c(Cl)cccc4OC)cnc32)cs1` [Compound 109, 4-(5-((2-chloro-6-methoxyphenyl)amino)-1H-pyrazolo[3,4-b]pyridin-1-yl)-N-methylthiophene-2-carboxamide], for which the values for the pIC50 on JNK3, against JNK1 and against p38a were more than 6.70, less than 6.00 and 6.00 to 6.70, respectively.
As for `CNC(=O)c1cc(-n2ncc3cc(Nc4c(F)cccc4Cl)c(F)cc32)cs1` [Compound 111, 4-(5-((2-chloro-6-fluorophenyl)amino)-6-fluoro-1H-indazol-1-yl)-N-methylthiophene-2-carboxamide], the values for the pIC50 against JNK3, on JNK1 and on p38a were more than 6.70, less than 6.00 and 6.00 to 6.70, respectively.
As for `CNC(=O)c1cc(-n2ncc3cc(Nc4c(F)cccc4Cl)c(COC)cc32)cs1` [Compound 152], the pIC50 is more than 6.70 on JNK3, 6.00 to 6.70 against JNK1 and 6.00 to 6.70 on p38a.
